The test system of test [1] is TS cells (lung TICs). Nature of the test: Intraperitoneal administration to NSG mice subcutaneously implanted with lung TICs. The following applies: cisplatin 4 mg/kg i.p., three days, 6 weeks. It counts as in vivo. The text has this: (§1) 5×10^5 single cells were mixed in a 1:1 mixture of serum free DMEM/F12 and Matrigel (BD) and injected subcutaneously into the flanks of 4-6 week old male and female NOD.Cg-Prkdc^scid Il2rg^tm1wjl SzJ (Jackson Laboratories). About 6 weeks later, or when tumor sizes exceed 2 cm in length, mice were sacrificed and tumors harvested for analysis. All animal experiments were approved by the Agency for Science Technology and Research Singapore—Biological Resource Centre. Mice were randomized by sex.
Since FIDAS5 appeared to more specifically disrupt the methionine cycle and inhibit cellular methylation activities compared to D9, it was sought to test whether its systemic delivery could impact the tumorigenic potential of TS cells. These highly tumorigenic cells were first subcutaneously implanted into NSG mice and FIDAS5 (40 mg/kg) or corn oil carrier was immediately administered via intraperitoneal injection for three consecutive days. After 6 weeks, mice transiently treated with FIDAS5 produced tumors that were much smaller than carrier-treated controls. […] To exclude the possibility of general cytotoxicity associated with the inhibitor on TS cells, TS cell-implanted NSG mice were treated with cisplatin (4 mg/kg), a frontline chemotherapeutic agent that broadly target bulk cancer cells in NSCLC tumors, in the same manner (FIG. 5i). […]

The subject of test [2] is histone methylation in TS cells. Nature of the test: Western blot of methylated histones in TS cells. It counts as cell-based, human. The protocol:
(§2) 1.5×10^6 cells were lysed in Llaemli-SDS buffer and then sonicated. Total protein concentration was measured by Bradford assay. Total cell lysates were separated by SDS-PAGE and transferred onto nitrocellulose, followed by blocking in 5% (v/v) milk in Tris-buffered saline in Tween 20, probing with the indicated antibodies and visualized by chemiluminescence (Roche). Primary antibodies used were anti-β-Actin (sc-47778), anti-GAPDH (sc-32233) from Santa Cruz: anti-GLDC (ab97625), anti-H3 (ab1791), anti-H3 (dimethylK36) (ab9049), anti-MAT2A (ab77471), anti-MTR (ab9209), anti-H3 (trimethylK79) (ab2621), anti-MTHFR (ab125707), anti-MTAP (ab ab55517) from Abcam; anti-H3(trimethyl K4) (39159), anti-H3(trimethyl K27)(39155), anti-H3(trimethylK36)(61101) and anti-H3(trimethylK9)(39765) from Active Motif; anti-β-catenin (BD610154) from BD Biosciences; anti-SHMT2 (HPA020549) and anti-SAHH (WH0000191M8) from Sigma; anti-Symmetric Di-Methyl Arginine Motif (13222) from CST.
(§3) To evaluate the methionine cycle as a therapeutic target in lung TICs, small molecule inhibitors that target enzymes within this pathway were employed, mimicking the effects of short-term methionine starvation (FIG. 5a). two inhibitors known to perturb methionine cycle activity and cellular methylation levels: 1) MAT2A inhibitor, FIDAS5; and 2) SAHH inhibitor, D9, which is an analog of DZNep. In a manner similar to amino acid starvation studies, TS cells were exposed transiently to the compounds for 48 h in culture and were immediately used for downstream tumorigenesis assays.

In test [3] the test system is methylated histones in TS cells. The experiment in a line: Protein turnover experiment (cycloheximide) of methylated histones in TS cells. It is filed as cell-based, human. As to conditions: MG132 10 μM with 20 μg/ml cycloheximide. The protocol: as §2
5×10^5 cells were treated with 20 μg/ml of cycloheximide (Sigma) and harvested for immunoblotting at indicated time points thereafter.

The test system of test [4] is TS cells (lung TICs). Nature of the test: Soft agar colony formation of pre-treated TS cells. It is filed as cell-based, human. The protocol: 2.5 ml lower layer of 0.7% agar in complete DMEM/F12 with 10% fetal bovine serum was placed in 3 wells of a 6 well dish, and permitted to solidify. 2×10^4 Cells (for 3 wells) were then suspended in a 2 ml layer of 0.35% agar in complete DMEM/F12 with 10% fetal bovine serum and layered on top of the bottom layer. Colonies were stained with crystal violet and counted after approximately 2 months.
as §3

Test [5] relates to TS cells (lung TICs). Nature of the test: Tumor formation in NSG mice after transplantation of pre-treated TS cells. It is filed as in vivo.
Source text: as §1, §3

Test [6] has as its system histone methylation in GLDC KD cells. The experiment in a line: Western blot of methylated histones in GLDC KD cells with metabolite supplementation. It counts as cell-based, human. As to conditions: SAM 500 μM 48 h, formate 0.5 mM, methyl-THF 20 μM or adenosine 200 μM. The protocol:
(§4) 1.5×10^6 cells were lysed in Llaemli-SDS buffer and then sonicated. Total protein concentration was measured by Bradford assay. Total cell lysates were separated by SDS-PAGE and transferred onto nitrocellulose, followed by blocking in 5% (v/v) milk in Tris-buffered saline in Tween 20, probing with the indicated antibodies and visualized by chemiluminescence (Roche).

In a further test the test system is GLDC KD cells. Nature of the test: Tumor mass in NSG mice after transplantation of SAM supplemented GLDC KD cells. It is filed as in vivo. As to conditions: GLDC KD cells supplemented with SAM for 48 hours before xenografting.
Source text: as §1

Test [7] concerns MTHFR abundance in GLDC KD cells. The experiment in a line: Western blot of MTHFR in SAM supplemented GLDC KD cells. It counts as cell-based, human. The protocol:
as §2
(A western blot detects proteins with antibodies after separation by electrophoresis.)

Test [8] has as its system ATP levels in knockdown TS cells. Nature of the test: Steady-state ATP levels (CellTiter-Glo) in GLDC/SHMT2 knockdown TS cells. As to conditions: GLDC (or SHMT2) knockdown cells; formate 0.5 mM or adenosine 200 μM. It counts as cell-based, human. The protocol:
(§5) Cells were seeded into 96-well plates at a density of 1,000 cells/well at 10 replicate wells per condition. Cells were then left to equilibrate at 37° C. for 3 h. ATP was then quantified using the CellTiter-GLo reagent (Promega). 5 biological replicates were used.
(Cellular ATP, detected with luciferase, serves as a proxy for viable cell number.)

The next test concerns ATP levels in Adh cells. Nature of the test: Steady-state ATP levels (CellTiter-Glo) in Adh cells. It counts as cell-based, human. As to conditions: formate 0.5 mM. The protocol:
as §5

The subject of test [9] is histone methylation in MTHFR overexpressing+GLDC KD cells. The experiment in a line: Western blot of methylated histones in MTHFR overexpressing+GLDC KD cells. It counts as cell-based, human. As to conditions: formate 0.5 mM. The protocol:
as §4

[10] abbreviates: methionine-starved TS cells (48 h) supplemented with SAM 500 μM or homocysteine 250 μM.
The mark [11] stands for this setting: TS cells, 500 μM SAM in the presence of FIDAS5.

We go through 6 compounds from US11872230B2, “Method of treating a methionine-dependent cancer” (Agency for Science, Technology and Research, priority 2018, dated 2024).

The structures appear in SMILES notation. Entries after “also recorded” stand apart in the source; their conditions may differ. Where a SMILES comes first, the peptide text is derived from it. The star is where a group is joined. Cbz = O=C(OCc1ccccc1)*

With `N.N.[Cl][Pt][Cl]` [Cisplatin, cis-Diammineplatinum(II) dichloride], in the test on TS cells (lung TICs) [1], the tumor growth result was “unable to halt tumor growth”.

For `N[C@@H](CCS)C(=O)O` [Homocysteine, homocysteine], in [2] (setting [10]), the histone methylation result is listed as “failed to rescue”.

Take `CC(C)C[C@@H](C=O)NC(=O)[C@H](CC(C)C)NC(=O)[C@H](CC(C)C)NC(=O)OCc1ccccc1` [MG132] (Cbz-Leu-Leu-Leu-aldehyde): the “high turnover of methylated histones” value in test [3] is “rescued”.

For `C[S+](CC[C@H](N)C(=O)O)C[C@H]1O[C@@H](n2cnc3c(N)ncnc32)[C@H](O)[C@@H]1O` (stereo partly drawn) [SAM, S-adenosyl methionine], the histone methylation result is reported as “rescued, to a large extent” in [2] (setting [11]); “restored” in test [2] (setting [10]); “reestablishment of histone methylation” in test [6]. In addition, the colony-formation capability result in the test with TS cells (lung TICs) [4] (setting [11]) is “rescued, to a large extent”. For the same compound, the colony-forming capability result in the test with TS cells (lung TICs) [4] (methionine starvation conditions, SAM 500 μM supplemented) is on record as “rescued”. In the test on TS cells (lung TICs) [5] (TS cells, 500 μM SAM in the presence of FIDAS5, transplanted into NSG mice), the tumor-formation capability result was “rescued, to a large extent”. Further, in the test on TS cells (lung TICs) [5] (methionine starvation conditions, SAM 500 μM supplemented, NSG mice), the tumor-forming capability entry is reported as “rescued”. For the same compound, the tumorigenic potential entry in the test with GLDC KD cells is listed as “incomplete rescue”. Besides, in [7], the MTHFR abundance result was “recovery of MTHFR abundance”.

On to `Nc1ncnc2c1ncn2[C@@H]1O[C@H](CO)[C@@H](O)[C@H]1O` [adenosine, Adenosine], for which the histone methylation result in [6] is on record as “did not rescue”. The “steady state ATP levels” value in test [8] was “rescued ATP levels”.

Consider `O=C[O-].[Na+]` [formate, Sodium formate], for which the histone methylation entry was “did not rescue” in [6] and “fully rescued” in test [9]. Besides, in [8], the “steady state ATP levels” value is listed as “could be rescued; also recorded: rescued ATP levels”. Also, the ATP levels result with ATP levels in Adh cells is “could not rescue”.
